In US20240150339A1, “Compounds and Their Use as PDE4 Activators” (Mironid Limited, priority 2021, published 2024):

Tested on: m-IMCD3 cells
Assay: Inhibition of PGE2-stimulated in vitro cyst formation in 3D culture of m-IMCD3 cells
Format: cell-based, mouse
Conditions: Mus musculus, mIMCD3, 144 h; 10 μM test compound; mean cyst area (%) compared to 100% for (DMSO + PGE2) and 0% for DMSO control; 100 nM PGE2; 6 days; read-out: % Cyst area after incubation with 10 μM test compound
Method: HEK 293 and MDCK cells (Public Health England, Cell Culture Collections) were maintained in Dulbecco's Modified Eagle's Medium (DMEM) supplemented with 10% (v/v) fetal bovine serum (FBS) (Seralab), 2 mM L-glutamine and 100 U/ml penicillin streptomycin cocktail (ThermoFisher); termed complete media. Clonal HEK 293 cell lines were maintained in complete media supplemented with 0.6 mg/mL G418 (Enzo Life Sciences). Mouse inner medullary collecting duct (m-IMCD3) cells [American Type Culture Collection (ATCC)] were maintained in media consisting of DMEM/Hams F-12 50/50 Mix (DMEM F12; Corning) supplemented with penicillin streptomycin cocktail (100 U/ml) and FBS (10% v/v) (DMEM F12-10% FBS).
The mouse Inner Medullary Collecting Duct cell line (m-IMCD3) spontaneously forms cystic spheroids in 3D culture with a Type 1 collagen/Matrigel extracellular matrix. This process can be stimulated with agents which raise intracellular cAMP, such as PGE2, and is used as an in vitro model for the formation of cystic structures in the kidneys of patients with ADPKD.
Rat Collagen I (Fisher Scientific) is prepared on ice by neutralising with 1M NaOH and diluting with a 2×volume of DMEM/F12+10% FBS for coating plate (coating mix) and a 2.2 volume of DMEM/F12+10% FBS for cell plating (plating mix). This is mixed 1:1.1 with ice cold Matrigel (Corning) for coating plates (coating mix), and 1:0.95 with Matrigel for cell plating (plating mix).
The assay is conducted in the wells of a 96-well plate culture dish using a total volume of 130 μl of collagen/Matrigel/DMEM F12-10% FBS suspension in growth media for each matrix plug per individual well. Initially, 30 μl of collagen/Matrigel/DMEM F12-10% FBS (coating mix) is added into the well of a 96 well plate and the collagen is set to a gel by incubating at 37° C. for at least 15 minutes. A second layer of 100 μl collagen/Matrigel suspension (plating mix) containing m-IMCD3 cells (2.75×10^6 m-IMCD3 cells per 96-well plate) is layered over the coating mix and the collagen/Matrigel/cell mix again set to a gel by incubating at 37° C. Cell cultures are maintained at 37° C. in an atmosphere of 5% CO2, 95% air.
Between 18 and 24h after plating, test compound(s) as DMSO stock solutions [0.1% (v/v) final DMSO concentration] and PGE2 (100 nM final concentration) in DMEM F12-10% FBS are added in quadruplicate wells per condition. Media, togetherwith the test compound and PGE2 are replenished after 2 or 3 days. After 6 days of culture z stack images of the wells are captured using the Nikon Eclipse Ti2-E microscope. Nikon General Analysis software is used to measure the following parameters in each well: the mean cyst area, the number of cysts, and the total cyst area.
PDE4 long form activators inhibited in vitro cyst formation in m-IMCD3 cells. Data are shown in FIG. 2 and Table 5 as mean cyst area (%), compared to 100% for (DMSO+PGE2) and 0% for DMSO control.

Structure (SMILES) | activity at 10 µM [%]
Cc1ccnc(C)c1-c1nc2ccc(C(=O)N[C@H]3CCOc4ccccc43)cc2s1 [Example 52, (S)-N-(chroman-4-yl)-2-(2,4-dimethylpyridin-3-yl)benzo[d]thiazole-6-carboxamide] | 24
Cc1cncc(-c2nc3ccc(C(=O)NCc4cccc(Cl)c4)cc3s2)c1 [Example 34, N-[(3-chlorophenyl)methyl]-2-(5-methylpyridin-3-yl)benzo[d]thiazole-6-carboxamide] | 26
O=C(N[C@H]1CCOc2ccccc21)c1ccc2nc(N3C[C@H]4C[C@@H]3CN4)sc2c1 [Example 78, 2-((1R,4R)-2,5-diazabicyclo[2.2.1]heptan-2-yl)-N-((S)-chroman-4-yl)benzo[d]thiazole-6-carboxamide] | 24
O=C(NC1CCCC1)c1ccc2nc(N3CCCC4NCCC43)sc2c1 (stereo not drawn) [Example 258, N-cyclopentyl-2-(octahydro-4H-pyrrolo[3,2-b]pyridin-4-yl)benzo[d]thiazole-6-carboxamide] | 11
COc1ccc2c(c1)OCC[C@H]2NC(=O)c1ccc2nc(N3CCNCC3)sc2c1 [Example 93, (R)-N-(7-methoxychroman-4-yl)-2-(piperazin-1-yl)benzo[d]thiazole-6-carboxamide] | 9
CN1CCN(c2nc3ccc(C(=O)N[C@H]4CCOc5ccccc54)cc3s2)CC1 [Example 71, (S)-N-(chroman-4-yl)-2-(4-methylpiperazin-1-yl)benzo[d]thiazole-6-carboxamide] | -1
O=C(NC1CCC1)c1cc(Cl)c2nc(N3CCNCC3)sc2c1 [Example 234, 4-chloro-N-cyclobutyl-2-(piperazin-1-yl)benzo[d]thiazole-6-carboxamide] | 3
Cc1c(C(=O)N[C@H]2CCOc3ccccc32)ccc2nc(N3CCNCC3)sc12 [Example 219, (S)-N-(chroman-4-yl)-7-methyl-2-(piperazin-1-yl)benzo[d]thiazole-6-carboxamide] | 2
O=C(NC1CCCC1)c1ccc2sc(C3CCNCC3)nc2c1 [Example 283, N-cyclopentyl-2-(piperidin-4-yl)benzo[d]thiazole-5-carboxamide] | 14
O=C(NCc1ccc(F)cc1)c1ccc2nc(C3CCNCC3)sc2c1 [Example 124, N-(4-fluorobenzyl)-2-(piperidin-4-yl)benzo[d]thiazole-6-carboxamide] | 11
O=C(N[C@H]1CCOc2c(F)cccc21)c1ccc2nc(N3CCNCC3)sc2c1 [Example 85, (S)-N-(8-fluorochroman-4-yl)-2-(piperazin-1-yl)benzo[d]thiazole-6-carboxamide] | -12
CC(C)c1ccc(-c2nc3ccc(C(=O)N[C@H]4CCOc5ccccc54)cc3s2)cn1 [Example 28, (S)-N-(chroman-4-yl)-2-(6-isopropylpyridin-3-yl)benzo[d]thiazole-6-carboxamide] | 26
CCN1CCN(c2nc3c(C)cc(C(=O)NC4CCOCC4)cc3s2)CC1 [Example 210, 2-(4-ethylpiperazin-1-yl)-4-methyl-N-(tetrahydro-2H-pyran-4-yl)benzo[d]thiazole-6-carboxamide] | 3
CC(C)OCCNC(=O)c1ccc2nc(N3C4CCC3CNC4)sc2c1 [Example 278, 2-(3,8-diazabicyclo[3.2.1]octan-8-yl)-N-(2-isopropoxyethyl)benzo[d]thiazole-6-carboxamide] | 18
O=C(N[C@H]1CCc2ccccc21)c1ccc2nc(C3CCNCC3)sc2c1 [Example 127, (S)-N-(2,3-dihydro-1H-inden-1-yl)-2-(piperidin-4-yl)benzo[d]thiazole-6-carboxamide] | 13
CN(C(=O)c1ccc2nc(C3CCNCC3)sc2c1)C1CCCC1 [Example 271, N-cyclopentyl-N-methyl-2-(piperidin-4-yl)benzo[d]thiazole-6-carboxamide] | 27
O=C(N[C@H]1CCOc2ccccc21)c1ccc2nc([C@H]3CCCNC3)sc2c1 (single isomer, unassigned) [Example 176] | 1

Structure (SMILES) | activity at 10 µM [%]
Cc1cc(C(=O)N[C@H]2CCOc3ccccc32)cc2sc(C3CCNCC3)nc12 [Example 186, (S)-N-(chroman-4-yl)-4-methyl-2-(piperidin-4-yl)benzo[d]thiazole-6-carboxamide] | 4
COc1cccc(CNC(=O)c2ccc3nc(-c4cncc(C)c4)sc3c2)c1 [Example 36, N-(3-methoxybenzyl)-2-(5-methylpyridin-3-yl)benzo[d]thiazole-6-carboxamide] | 30
CCN1CCC(c2nc3ccc(C(=O)N[C@@H]4c5ccccc5C[C@@H]4O)cc3s2)CC1 [Example 166, 2-(1-ethylpiperidin-4-yl)-N-((1R,2S)-2-hydroxy-2,3-dihydro-1H-inden-1-yl)benzo[d]thiazole-6-carboxamide] | -10
CC(CO)c1cc(C(=O)NC2CCCC2)cc2sc(N3C4CCC3CNC4)nc12 (stereo not drawn) [Example 249, N-cyclopentyl-2-(3,8-diazabicyclo[3.2.1]octan-8-yl)-4-(1-hydroxypropan-2-yl)-benzo[d]thiazole-6-carboxamide] | 9
Cc1ncccc1-c1nc2ccc(C(=O)NCc3ccc(F)cc3)cc2s1 [Example 2, N-(4-fluorobenzyl)-2-(2-methylpyridin-3-yl)benzo[d]thiazole-6-carboxamide] | -9
Cc1ncccc1-c1nc2ccc(C(=O)NCc3cccc(F)c3)cc2s1 [Example 4, N-(3-fluorobenzyl)-2-(2-methylpyridin-3-yl)benzo[d]thiazole-6-carboxamide] | 6
CC(C)N1CCN(c2nc3ccc(C(=O)N[C@H]4CCOc5ccccc54)cc3s2)CC1 [Example 74, (S)-N-(chroman-4-yl)-2-(4-isopropylpiperazin-1-yl)benzo[d]thiazole-6-carboxamide] | 8
CC(C)(C)N1CCN(c2nc3ccc(C(=O)N[C@H]4CCOc5ccccc54)cc3s2)CC1 [Example 75, (S)-2-(4-(tert-butyl)piperazin-1-yl)-N-(chroman-4-yl)benzo[d]thiazole-6-carboxamide] | -1
CCN1CCN(c2nc3ccc(C(=O)NC4CCCC4)cc3s2)CC1 [Example 81, N-cyclopentyl-2-(4-ethylpiperazin-1-yl)benzo[d]thiazole-6-carboxamide] | 7
COC1CCN(c2nc3ccc(C(=O)N[C@H]4CCOc5ccccc54)cc3s2)CC1 [Example 70, (S)-N-(chroman-4-yl)-2-(4-methoxypiperidin-1-yl)benzo[d]thiazole-6-carboxamide] | -18
Cc1cc(C(=O)NC2CCCC2)cc2sc(N3CCNCC3)nc12 [Example 206, N-cyclopentyl-4-methyl-2-(piperazin-1-yl)benzo[d]thiazole-6-carboxamide] | 14
CN1CCC(c2nc3ccc(C(=O)N[C@@H]4CCC[C@H]4O)cc3s2)CC1 [Example 274, N-[(1R,2R)-2-hydroxycyclopentyl]-2-(1-methylpiperidin-4-yl)benzo[d]thiazole-6-carboxamide] | 16
O=C(N[C@H]1CCOc2ccccc21)c1ccc2nc(N3CCOCC3)sc2c1 [Example 69, (S)-N-(chroman-4-yl)-2-morpholinobenzo[d]thiazole-6-carboxamide] | 20
O=C(NC1CCCC1)c1cc(Br)c2nc(N3C4CCC3CNC4)sc2c1 [Example 237, 2-(3,8-diazabicyclo[3.2.1]octan-8-yl)-4-bromo-N-cyclopentylbenzo[d]thiazole-6-carboxamide] | 11
COc1ccc(CNC(=O)c2ccc3nc(-c4cccnc4C)sc3c2)cc1 [Example 3, N-(4-methoxybenzyl)-2-(2-methylpyridin-3-yl)benzo[d]thiazole-6-carboxamide] | 23
O=C(N[C@@H]1CCc2c(F)cccc21)c1ccc2nc(N3CCNCC3)sc2c1 [Example 104, (R)-N-(4-fluoro-2,3-dihydro-1H-inden-1-yl)-2-(piperazin-1-yl)benzo[d]thiazole-6-carboxamide] | 30
